Results reported in patent US11000033B2, “Ketone or oxime compound, and herbicide” (NISSAN CHEMICAL CORPORATION, priority 2014, dated 2021).

Legend:
Assay type in all cases: in vivo
[1] = tested on: Stellaria media; test: Test Example 4: herbicidal effect by soil treatment (symbol P); conditions: 320 g/ha
Procedure, shortened: (§1)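 Seeds were sown in sterilized diluvial soil, covered with about 1.5 cm of soil, and the soil surface was sprayed with a water-diluted emulsion of the compound at a predetermined rate. Plants grew in a greenhouse at 25° C. to 30° C.; effects were scored visually 3 weeks after application.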

[2] = tested on: Setaria viridis; test: Test Example 4: herbicidal effect by soil treatment (symbol G); conditions: 320 g/ha
Procedure, shortened: as §1

[3] = tested on: beet; test: Test Example 5: effect on crop by foliage application, plastic box (symbol f); conditions: 320 g/ha, 3 weeks after application
Procedure, shortened: (§2)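 Box culture: sterile diluvial soil, seeds spot-sown, ~1.5 cm cover, raised under glass at 25–30° C.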

[4] = tested on: Veronica persica; test: Test Example 4: herbicidal effect by soil treatment (symbol R); conditions: 320 g/ha
Procedure, shortened: as §1

[5] = tested on: Monochoria vaginalis; test: Test Example 2: herbicidal activity, application during weed generation in submerged conditions (symbol C); conditions: Table 23; application herbicide amount 320 g/ha; grade 0-5 by criteria of Test Example 1
Procedure, shortened: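 Steps: fill pots with alluvial soil; add water to 4 cm depth; co-sow the three weeds; grow at 25° C. to 30° C. under glass; at 1–2 leaves, dose the floodwater with diluted emulsion; rate damage visually after 3 weeks.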

[6] = tested on: Echinochloa crus-galli var. crus-galli; test: Test Example 4: herbicidal effect by soil treatment (symbol H); conditions: 320 g/ha
Procedure, shortened: as §1

[7] = tested on: soybean; test: Test Example 4: effect on crop by soil treatment (symbol d); conditions: 320 g/ha
Procedure, shortened: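 Grown at 25° C. to 30° C. in a greenhouse, the crops came from seed sown spot-wise in sterilized diluvial soil under roughly 1.5 cm of covering soil.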

[8] = tested on: Echinochloa crus-galli var. crus-galli; test: Test Example 5: herbicidal effect by foliage application, plastic box (symbol H); conditions: 320 g/ha, 3 weeks after application
Procedure, shortened: (§3)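 Seeds were sown in sterilized diluvial soil, covered with about 1.5 cm of soil and grown 14 days in a greenhouse at 25° C. to 30° C. An emulsifiable formulation diluted in water to a set rate was sprayed over foliage, and injury was scored 3 weeks later.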

[9] = tested on: rapeseed; test: Test Example 5: effect on crop by foliage application, plastic box (symbol g); conditions: 320 g/ha, 3 weeks after application
Procedure, shortened: as §2

[10] = tested on: Digitaria ciliaris; test: Test Example 4: herbicidal effect by soil treatment (symbol F); conditions: 320 g/ha
Procedure, shortened: as §1

[11] = tested on: directly sowed rice plant; test: Test Example 3: effect on crop by foliage application, Wagner pot (symbol b); conditions: application herbicide amount 320 g/ha
Procedure, shortened: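 Alluvial soil in a 1/10000-are Wagner pot was flooded to a water depth of 0.1–0.5 cm. Echinochloa crus-galli var. crus-galli, Leptochloa chinensis, Cyperus difformis and rice were sown into it and grown in a greenhouse at 25–30 °C.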

[12] = tested on: Setaria viridis; test: Test Example 5: herbicidal effect by foliage application, plastic box (symbol G); conditions: 320 g/ha, 3 weeks after application
Procedure, shortened: as §3

[13] = tested on: Galium spurium; test: Test Example 5: herbicidal effect by foliage application, plastic box (symbol Q); conditions: 320 g/ha, 3 weeks after application
Procedure, shortened: as §3

[14] = tested on: Scirpus juncoides; test: Test Example 1: herbicidal activity, application before weed generation in submerged conditions (symbol B); conditions: application herbicide amount 320 g/ha
Procedure, shortened: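 Compound emulsion was diluted to a set herbicide amount and applied to the water surface on the sowing day, into submerged (4 cm) alluvial-soil pots sown with mixed weed seeds and transplanted 2.5-leaf rice. Pots were held in a 25–30 °C greenhouse, and weeds were scored 0–5 by herbicidal ratio after 3 weeks.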

[15] = tested on: soybean; test: Test Example 5: effect on crop by foliage application, plastic box (symbol d); conditions: 320 g/ha, 3 weeks after application
Procedure, shortened: as §2

| SMILES | P: Stellaria media, herbicidal effect grade [1] | G: Setaria viridis, herbicidal effect grade [2] | f: beet, effect on crop (criteria 0-5) [3] | R: Veronica persica, herbicidal effect grade [4] | Herbicidal effect grade, C: Monochoria vaginalis [5] | H: Echinochloa crus-galli var. crus-galli, herbicidal effect grade [6] | d: soybean, effect grade on crop [7] | H: Echinochloa crus-galli var. crus-galli, herbicidal effect (criteria 0-5) [8] | g: rapeseed, effect on crop (criteria 0-5) [9] | F: Digitaria ciliaris, herbicidal effect grade [10] | effect on crop b (directly sowed rice plant), grade 0-5 [11] | G: Setaria viridis, herbicidal effect (criteria 0-5) [12] | Q: Galium spurium, herbicidal effect (criteria 0-5) [13] | Herbicidal effect grade, B: Scirpus juncoides [14] | d: soybean, effect on crop (criteria 0-5) [15] |
| --- | --- | --- | --- | --- | --- | --- | --- | --- | --- | --- | --- | --- | --- | --- | --- |
| CON=C(C)CC1CC(OC(=O)c2nc(C)sc2C)=C(c2c(C)cc(C)cc2C)C1=O (stereo not drawn) [1-101] | 0 (Herbicidal ratio of 5% or lower (almost no effect)) | 5 (Herbicidal ratio of 90% or more (almost completely withered)) | 0 (Herbicidal ratio of 5% or lower (almost no effect)) | 0 (Herbicidal ratio of 5% or lower (almost no effect)) | 2 (Herbicidal ratio of 20% or higher and lower than 40%) | 5 (Herbicidal ratio of 90% or more (almost completely withered)) | 2 (Herbicidal ratio of 20% or higher and lower than 40%) | 5 (Herbicidal ratio of 90% or more (almost completely withered)) | 5 (Herbicidal ratio of 90% or more (almost completely withered)) | 5 (Herbicidal ratio of 90% or more (almost completely withered)) | 5 (Herbicidal ratio of 90% or more (almost completely withered)) | 5 (Herbicidal ratio of 90% or more (almost completely withered)) | 0 (Herbicidal ratio of 5% or lower (almost no effect)) | 5 (Herbicidal ratio of 90% or more (almost completely withered)) | 3 (Herbicidal ratio of 40% or higher and lower than 70%) |
| CON=C(C)CC1CC(OC(=O)CSc2ccccc2)=C(c2c(C)cc(C)cc2C)C1=O (stereo not drawn) [1-134] | 0 (Herbicidal ratio of 5% or lower (almost no effect)) | 5 (Herbicidal ratio of 90% or more (almost completely withered)) | 0 (Herbicidal ratio of 5% or lower (almost no effect)) | 0 (Herbicidal ratio of 5% or lower (almost no effect)) | 3 (Herbicidal ratio of 40% or higher and lower than 70%) | 5 (Herbicidal ratio of 90% or more (almost completely withered)) | 0 (Herbicidal ratio of 5% or lower (almost no effect)) | 5 (Herbicidal ratio of 90% or more (almost completely withered)) | 4 (Herbicidal ratio of 70% or higher and lower than 90%) | 5 (Herbicidal ratio of 90% or more (almost completely withered)) | 5 (Herbicidal ratio of 90% or more (almost completely withered)) | 5 (Herbicidal ratio of 90% or more (almost completely withered)) | 4 (Herbicidal ratio of 70% or higher and lower than 90%) | 5 (Herbicidal ratio of 90% or more (almost completely withered)) | 2 (Herbicidal ratio of 20% or higher and lower than 40%) |
